Test results taken from patent US11311544B2, “Treatment of congenital adrenal hyperplasia” (Neurocrine Biosciences, Inc., priority 2014, dated 2022).
Read-outs that look alike come from different tables or passages of the source.

What was measured:
[1] = target: T1, CRF1 receptor (Homo sapiens, UniProt P34998); conditions: as reported in Fleck et al., cited from earlier work; for Ki: Ki=k−1/k1, read-out: Kinetic Ki; for Dissociation t1/2: t1/2=0.693/k−1
T1 sequence (P34998 24-415): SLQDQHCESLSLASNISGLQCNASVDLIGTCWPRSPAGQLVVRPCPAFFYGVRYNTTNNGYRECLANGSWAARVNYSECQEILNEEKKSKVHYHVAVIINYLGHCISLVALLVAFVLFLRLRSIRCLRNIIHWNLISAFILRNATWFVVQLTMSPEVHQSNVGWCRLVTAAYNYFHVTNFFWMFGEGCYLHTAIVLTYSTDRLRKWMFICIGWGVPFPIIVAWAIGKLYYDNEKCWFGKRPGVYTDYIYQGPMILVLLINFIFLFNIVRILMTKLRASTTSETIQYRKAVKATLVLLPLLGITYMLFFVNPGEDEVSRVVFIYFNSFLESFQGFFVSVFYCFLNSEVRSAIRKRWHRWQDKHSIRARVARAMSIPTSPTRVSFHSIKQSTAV

[2] = tested on: plasma ACTH in adrenalectomized (ADX) rats; conditions: Fleck et al., cited from earlier work; for effect on plasma ACTH, acute: highest dose 10 mg/kg, 1 hr post-injection, FIG. 3A-C
[3] = tested on: plasma ACTH in adrenalectomized (ADX) rats; assay: Lowering of plasma ACTH in adrenalectomized rats; assay type: in vivo, rat; conditions: 30 mg/kg single oral dose, FIG. 2
Source text: Adrenalectomy eliminates circulating corticosterone (the primary glucocorticoid) in rats and removes the negative feedback control of the HPA axis at both the hypothalamic and pituitary (corticotroph cells) levels and thus chronically elevates plasma ACTH (see, e.g., Mims et al., J. Natl. Med. Assoc. 69:145-47 (1977)). […] These findings were recapitulated with the small molecule NBI-77860 (Compound I). In adrenalectomized rats, Compound I has potent capability for lowering ACTH.
These findings were recapitulated with the small molecule NBI-77860. […] The duration of efficacy correlated with peak plasma concentrations, with a time course exceeding drug plasma exposure.
Fleck et al. also report the effects of CRF1 receptor antagonists differentiated by their dissociation half-life on plasma ACTH levels in adrenalectomized rats; namely, NBI 30775, NBI 34041 and NBI 35965. […] After a longer duration, a clear difference emerged between NBI 35965 and the other two ligands. The ACTH level returned to the vehicle level by 2 hr for NBI 35965 (FIG. 3C), whereas the response was sustained for 4-6 hr for NBI 30775 and NBI 34041 (FIGS. 3A and 3B).

[4] = tested on: 17-OHP and ACTH levels (HPA axis hormones); assay: Phase 1 single-dose clinical study in adult females with classical congenital adrenal hyperplasia; assay type: in vivo, human; conditions: adult female classical CAH patients, single bedtime doses
Description: The study was a single-blind, placebo-controlled, single center, fixed-sequence, single-dose clinical trial in adult female classical CAH patients.
The subjects' usual morning dose of concurrent steroidal treatment was delayed until after the 16-hour postdose blood samples were collected (i.e., until approximately 1400 h).
The PD endpoints for this study included the HPA axis biomarkers of interest in this patient population; namely, 17-hydroxyprogesterone (17-OHP; as the primary PD endpoint), adrenocorticotropic hormone (ACTH), androstenedione, testosterone, and serum cortisol levels. The initial analysis of PD variables was an examination of the grouped subject data for each biomarker, expressed as a mean percent change from predose levels for the two active dosing conditions relative to the placebo condition.
This responder analysis yielded a sizeable responder rate of 50% in the study (none of these subjects were responders during the initial placebo treatment period).

[5] = tested on: HPA axis response (ACTH) produced by metyrapone; assay: Pharmacodynamic effect of single oral doses on HPA axis response produced by metyrapone in humans; assay type: in vivo; conditions: human, metyrapone 0.04 g/kg
[6] = Table 2 rate constant used for t1/2

SMILES | Ki [1] [nM] | Rate constant (association k1 or dissociation k−1) [1, 6] [min⁻¹] | Rate constant (association k1 or dissociation k−1) ([1]; association rate constant) | Dissociation t1/2 [1] [min] | also measured
CCC(CC)Oc1cc(C)nc(Oc2c(C)cc(C)cc2C)c1C [CP-316,311, 3,6-dimethyl-4-(pentan-3-yloxy)-2-(2,4,6-trimethylphenoxy) pyridine] | 12 | 0.17 ± 0.04 | 13 ± 2 10^6M^−1min^−1 | 4.1 | 
COCC(COC)Nc1nc(C)nc2c(-c3ccc(Cl)cc3Cl)c(C)nn12 [DMP696] | 9.5 | 0.095 ± 0.02 | 7.7 ± 2 10^6M^−1min^−1 | 7.3 | 
CCC(CC)Nc1cc(C)nc2c(-c3ccc(OC)cc3C)c(C)nn12 [DMP904] | 0.38 | 0.0072 ± 0.002 | 18 ± 1 10^6M^−1min^−1 |  | 
CCCN(CC1CC1)c1nc(C)nc(Nc2c(Cl)cc(Cl)cc2Cl)c1Cl [NBI-27914] | 25 | 0.27 ± 0.07 | 9.4 ± 3 10^6M^−1min^−1 | 2.6 | 
CCCN(CCC)c1cc(C)nc2c(-c3cnc(N(C)C)cc3C)c(C)nn12 [NBI-30775, 5-[7-(dipropylamino)-2,5-dimethylpyrazolo[1,5-a]pyrimidin-3-yl]-N,N,4-trimethylpyridin-2-amine] |  | 0.0054 ± 0.0006 | 14 ± 2.0 10^6M^−1min^−1 |  | effect on plasma ACTH, acute [2]: reduced ACTH acutely
CCCC(CCC)N1CCn2nc(-c3ccc(Cl)cc3Cl)c3nc(C)cc1c32 [NBI-34041, 3-(2,4-dichlorophenyl)-9-(heptan-4-yl)-6-methyl-1,2,5,9-tetraazatricyclo[6.3.1.0^4,12] dodeca-2,4(12),5,7-tetraene] | 1.7 | 0.013 ± 0.002 | 8.3 ± 2.0 10^6M^−1min^−1 | 53 | effect on plasma ACTH, acute [2]: reduced ACTH acutely
CC[C@H]1Cn2nc(-c3ccc(Cl)cc3Cl)c3nc(C)cc(c32)N1CC1CC1.CS(=O)(=O)O [NBI-35965] | 2.3 | 0.048 ± 0.005 | 20 ± 2 10^6M^−1min^−1 | 16 | time by which ACTH level returned to the vehicle level ([2]; 10 mg/kg): ≤ 2 h; effect on plasma ACTH, acute [2]: reduced ACTH acutely
CC[C@H](Nc1cc(C)nc2c(-c3ccc(OC)cc3C)c(C)nn12)c1nc(C)no1 [NBI-77860, 2,5-dimethyl-3-[2-methyl-4-(methyloxy)phenyl]-N-[(1S)-1-(3-methyl-1,2,4-oxadiazol-5-yl)propyl]pyrazolo[1,5-a]pyrimidin-7-amine] |  |  |  |  | duration of significant lowering of plasma ACTH levels [3]: up to 5 hours; effects on 17-OHP and ACTH, 300 mg dose compared with 600 mg dose [4]: nearly identical effects; ACTH AUC (30 min to 4 h) compared to placebo ([5]; single oral dose 10 mg): increase; ACTH AUC (2 h to 4 h) compared with placebo ([5]; single oral dose 10 mg): reduction was not seen; ACTH AUC (30 min to 4 h) compared to placebo ([5]; single oral dose 50 mg): non-significant reduction; ACTH AUC (2 h to 4 h) compared with placebo ([5]; single oral dose 50 mg): significant reduction; ACTH AUC (30 min to 4 h) compared to placebo ([5]; single oral dose 400 mg): significant reduction; ACTH AUC (2 h to 4 h) compared with placebo ([5]; single oral dose 400 mg): significant reduction
CCC(CC)Nc1c2c(nc3c(-c4ccc(OC)cc4Cl)c(C)nn13)CCC2 [ONO-2333Ms, 10-(2-chloro-4-methoxyphenyl)-11-methyl-N-(pentan-3-yl)-1,8,12-triazatricyclo[7.3.0.0^3,7] dodeca-2,7,9,11-tetraen-2-amine] | 15 | 0.063 ± 0.029 | 4.4 ± 2.2 10^6M^−1min^−1 | 17 | 
Cc1nnc2n1-c1ccc(Cl)cc1C(c1ccccc1)=NC2 [alprazolam] |  |  |  |  | ACTH AUC (30 min to 4 h) compared to placebo ([5]; single dose alprazolam 0.75 mg): significant reduction
CCCCN(CC)c1nc(C)nc2c1c(C)c(C)n2-c1c(C)cc(C)cc1C [antalarmin, N-butyl-N-ethyl-2,5,6-trimethyl-7-(2,4,6-trimethylphenyl)pyrrolo[3,2-e]pyrimidin-4-amine] | 3.9 | 0.013 ± 0.002 | 3.4 ± 0.6 10^6M^−1min^−1 | 53 | 
CC[C@@H](C)Nc1nc(C)nc2c(-c3ccc(OC)nc3C)c(C)nn12 [pexacerfont, N-[(2R)-butan-2-yl]-8-(6-methoxy-2-methylpyridin-3-yl)-2,7-dimethylpyrazolo[1,5-a][1,3,5]triazin-4-amine] |  | 0.049 ± 0.001 | 2.6 ± 0.1 10^6M^−1min^−1 | 14 | 
